Source: patent US5554631A, “5-pyrrolyl-6-halogeno-2-pyridylmethylsulfinyl benzimidazole derivatives” (Il-Yang Pharm. Co., Ltd., priority 1994, dated 1996)
Where a name gives a salt, the structure may show the parent alone. One block for each compound: values may come before it.

Experiments:
gastric juice secretion = test: Inhibition of gastric juice secretion, Shay method; assay type: in vivo, SD male rats; details: for Gastric juice volume / Inhibition rate, gastric juice secretion: intraduodenal; for Gastric juice volume / Inhibition rate, gastric juice secretion / ED50: 5 h; for Inhibition rate, gastric juice secretion: vs normal group; for ED50: Rattus norvegicus
Method: (§1) The specific test methods are as follows.
(§2) SD male rats (200±20 g) were fasted for 24 hours, except for water, and then anesthesized with ether. The abdomen of rats was incised and then the pylorus was ligated. The test compounds were suspended or dissolved in […] (carboxymethylcellulose) and injected into duodenum. After the abdomen was suctured, the rats were allowed to stand for 5 hours and then sacrificed with ether. The stomach was removed from rats and the gastric juices were collected. The gastric juice was centrifuged with 10,000×g for 10 minutes at 4° C. to remove the precipitate. The amount of gastric juice and acidity were determined using pH 7.0 end point assay with 0.02N NaOH and then the total acid output was calculated.

acidity = test: Inhibition of acidity (total acid output), Shay method; assay type: in vivo, SD male rats; details: for Volume (inhibition of acidity) / Inhibition rate, acidity: intraduodenal; for Volume (inhibition of acidity) / Inhibition rate, acidity / ED50: 5 h; for Inhibition rate, acidity: vs normal group; for ED50: Rattus norvegicus
Method: as §1, §2

H^+ /K^+ -ATPase = target: T1, H^+ /K^+ -ATPase (Oryctolagus cuniculus, UniProt P27112); test: Inhibition of H+/K+-ATPase enzyme activity in vitro; assay type: biochemical, rabbit; details: rabbit gastric microsomal H+/K+-ATPase, 5 min pre-incubation at 37° C., 4 mM ATP; read-out: IC50
T1 construct: The gastric mucous membrane was removed from rabbit; from tissue; host or cells: rabbit gastric mucosa, microsomal fraction (77,000 xg)
T1 sequence (P27112 2-1035 limits assumed): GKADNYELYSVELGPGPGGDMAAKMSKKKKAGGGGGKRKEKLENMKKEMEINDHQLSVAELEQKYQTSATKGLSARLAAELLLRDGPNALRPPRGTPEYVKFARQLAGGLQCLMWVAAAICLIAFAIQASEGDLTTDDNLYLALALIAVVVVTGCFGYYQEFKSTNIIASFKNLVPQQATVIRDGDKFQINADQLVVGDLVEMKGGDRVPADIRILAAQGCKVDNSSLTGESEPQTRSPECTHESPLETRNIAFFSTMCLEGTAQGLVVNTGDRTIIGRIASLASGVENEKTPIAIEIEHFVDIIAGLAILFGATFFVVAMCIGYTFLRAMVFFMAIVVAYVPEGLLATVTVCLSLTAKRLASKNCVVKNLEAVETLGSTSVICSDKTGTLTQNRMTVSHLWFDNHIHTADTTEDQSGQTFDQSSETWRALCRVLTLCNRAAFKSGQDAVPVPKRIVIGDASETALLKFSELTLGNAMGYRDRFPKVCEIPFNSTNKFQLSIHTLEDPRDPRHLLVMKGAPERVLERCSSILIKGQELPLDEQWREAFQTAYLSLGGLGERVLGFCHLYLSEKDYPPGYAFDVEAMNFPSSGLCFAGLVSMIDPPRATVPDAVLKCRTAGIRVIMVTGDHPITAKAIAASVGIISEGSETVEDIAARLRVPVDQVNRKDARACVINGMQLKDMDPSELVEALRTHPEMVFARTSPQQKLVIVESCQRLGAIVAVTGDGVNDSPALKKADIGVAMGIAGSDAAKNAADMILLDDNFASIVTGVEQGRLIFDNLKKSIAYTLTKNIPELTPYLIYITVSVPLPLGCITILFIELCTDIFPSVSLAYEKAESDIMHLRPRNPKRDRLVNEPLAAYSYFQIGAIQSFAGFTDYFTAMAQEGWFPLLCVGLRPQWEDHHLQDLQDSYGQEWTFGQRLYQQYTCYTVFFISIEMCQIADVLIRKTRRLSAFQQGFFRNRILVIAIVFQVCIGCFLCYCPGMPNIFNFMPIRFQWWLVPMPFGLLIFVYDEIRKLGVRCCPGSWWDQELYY
T1 sequence (P18597 whole entry partner): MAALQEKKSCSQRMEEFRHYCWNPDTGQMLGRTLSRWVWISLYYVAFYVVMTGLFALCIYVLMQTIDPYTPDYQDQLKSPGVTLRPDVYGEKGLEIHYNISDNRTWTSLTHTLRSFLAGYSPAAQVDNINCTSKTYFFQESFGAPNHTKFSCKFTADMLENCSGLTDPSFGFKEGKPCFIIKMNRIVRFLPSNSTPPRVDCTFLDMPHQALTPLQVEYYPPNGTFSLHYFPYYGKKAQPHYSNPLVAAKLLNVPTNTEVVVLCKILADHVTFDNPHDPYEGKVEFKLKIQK
Method: The gastric mucous membrane was removed from rabbit and then centrifuged with 77,000 xg using a ultracentrifuge to separate the microsomal fraction which was used as the source of H^+ /K^+ -ATPase enzyme for this test. 60 μg of H^+ /K^+ -ATPase was pre-incubated with the sample (the compound according to the present invention) for 5 minutes at 37° C. and then 4 mM ATP as the substrate and 4 mM Mg^++, 20 mM K^+ as the cofactor were added thereto. Then, the amount of inorganic phosphorus thus produced was determined using a spectrophotometer at 660 nm and converted into the amount of protein according to Lowry method. […]

[1] = system: gastric and duodenal ulcers; details: background art; cited from earlier work
in vivo = details: mouse, in vivo, po
Method: (§3) Five weeks aged ICR (male, female) mouse were pre-bred in the breeding cage for one week and then the animals showing a smooth gain in body weight were randomly selected and used in this test. The amount to be administered to the test animals was established on the basis of the maximum dose of 5,000 mg/kg with the common ratio of 1.5.
(§4) The test compounds in a powder were suspended in 0.5% methylcellulose and administered per oral using a lml syringe. The other specific conditions for administration are described in the following.
(§5) In the above test, the control group received only 0.5% methylcellulose.
(§6) (1) Clinical symptoms and death of test animals
(§7) The clinical symptoms and death of test animals caused by the test compounds were recorded immediately after administration of the test compounds and during the overall test period.

ICR (male, female) mouse = test: in vivo; details: oral; for Number of animals died in day after administration: each of days 0-14
Method: as §3, §4, §5, §6, §7

[2] = system: proton pump of H^+, K^+ -ATPase; details: background art; cited from earlier work

SMILES: Cc1cnc(C[S+]([O-])c2nc3cc(-n4c(C)ccc4C)c(F)cc3[nH]2)cc1C (stereo not drawn) [Compound 18]
IC50 (H^+ /K^+ -ATPase): 400 µM

SMILES: COc1ccnc(C[S+]([O-])c2nc3cc(-n4c(C)ccc4C)c(F)cc3[nH]2)c1OC (stereo not drawn) [Compound 19]
IC50 (H^+ /K^+ -ATPase): 8100 µM

SMILES: Cc1ccc(C)n1-c1cc2nc([S+]([O-])Cc3ccccn3)[nH]c2cc1F (stereo not drawn) [Compound 21]
IC50 (H^+ /K^+ -ATPase): 7600 µM

SMILES: Cc1cnc(C[S+]([O-])c2nc3cc(-n4c(C)ccc4C)c(F)cc3[nH]2)c(C)c1OCC(F)(F)F (stereo not drawn) [Compound 22]
IC50 (H^+ /K^+ -ATPase): 390 µM

SMILES: COc1ccnc(C[S+]([O-])c2nc3cc(-n4cccc4)c(F)cc3[nH]2)c1C (stereo not drawn) [Compound 24, 2-[[(4-methoxy-3-methyl)-2-pyridinyl]methylsulfinyl]-5-(1H-pyrrol-1-yl)-6-fluoro-1H-benzimidazole sodium salt]
IC50 (H^+ /K^+ -ATPase): 5.6 µM

SMILES: COc1ccc2[nH]c([S+]([O-])Cc3ncc(C)c(OC)c3C)nc2c1 (stereo not drawn) [Omeprazole, 5-methoxy-2-[[(4-methoxy-3,5-dimethyl-2-pyridinyl)methyl]sulfinyl]-1H-benzimidazole]
Anti-ulcer effect over conventional H2-receptor antagonists [1]: superior effect over conventional H2 -receptor antagonists
Duration compared with conventional anti-ulcer agents [1]: prolonged duration in comparison with conventional anti-ulcer agents
LD50 (in vivo): > 5000 mg/kg
Acute toxicity (in words) (ICR (male, female) mouse; clinical symptoms, death and autopsy results, mouse): very low as in Omeprazole
LD50 (ICR (male, female) mouse; female mouse): > 5,000.0 mg/kg BW
Number of animals died in day after administration (ICR (male, female) mouse; female mouse, 987 mg/kg): 0
Number of animals died in day after administration (ICR (male, female) mouse; female mouse, 1481 mg/kg): 0
Number of animals died in day after administration (ICR (male, female) mouse; female mouse, 2222 mg/kg): 0
Number of animals died in day after administration (ICR (male, female) mouse; female mouse, 3333 mg/kg): 0
Number of animals died in day after administration (ICR (male, female) mouse; female mouse, 5000 mg/kg): 0
Clinical symptoms (ICR (male, female) mouse; male and female, maximum administration amount of 5,000 mg per kg): No specific abnormal clinical symptoms were observed
LD50 (ICR (male, female) mouse; male mouse): > 5,000.0 mg/kg BW
Number of animals died in day after administration (ICR (male, female) mouse; male mouse, 987 mg/kg): 0
Number of animals died in day after administration (ICR (male, female) mouse; male mouse, 1481 mg/kg): 0
Number of animals died in day after administration (ICR (male, female) mouse; male mouse, 2222 mg/kg): 0
Number of animals died in day after administration (ICR (male, female) mouse; male mouse, 3333 mg/kg): 0
Number of animals died in day after administration (ICR (male, female) mouse; male mouse, 5000 mg/kg): 0
Visual autopsy view (ICR (male, female) mouse; survived animals): No specific abnormal autopsy view was observed
Acting mechanism [2]: specific proton pump inhibitor
Gastric juice volume (gastric juice secretion; 10 mg/kg, rat): 1.49 ± 0.18 ml/100 g BW
Inhibition rate, gastric juice secretion (gastric juice secretion; 10 mg/kg, rat): 54.29%
ED50 (gastric juice secretion): 8.5 mg/kg
Volume (inhibition of acidity) (acidity; 10 mg/kg, rat): 9.91 ± 4.20 μEq/hr
Inhibition rate, acidity (acidity; 10 mg/kg, rat): 82.89%
ED50 (acidity): 3.73 mg/kg
IC50 (H^+ /K^+ -ATPase): ~160 µM

Now from value to compound, other results behind:

IC50 (H^+ /K^+ -ATPase): 50 µM
SMILES: COc1c(C)cnc(C[S+]([O-])c2nc3cc(-n4c(C)ccc4C)c(F)cc3[nH]2)c1C (stereo not drawn) [Compound 15]
Gastric juice volume (gastric juice secretion; 10 mg/kg, rat): 1.81 ± 0.19 ml/100 g BW
Inhibition rate, gastric juice secretion (gastric juice secretion; 10 mg/kg, rat): 33.70%
Gastric juice volume (gastric juice secretion; 30 mg/kg, rat): 1.46 ± 0.13 ml/100 g BW
Inhibition rate, gastric juice secretion (gastric juice secretion; 30 mg/kg, rat): 46.52%
Volume (inhibition of acidity) (acidity; 10 mg/kg, rat): 26.61 ± 5.27 μEq/hr
Inhibition rate, acidity (acidity; 10 mg/kg, rat): 51.81%
Volume (inhibition of acidity) (acidity; 30 mg/kg, rat): 12.74 ± 1.80 μEq/hr
Inhibition rate, acidity (acidity; 30 mg/kg, rat): 76.93%

IC50 (H^+ /K^+ -ATPase): 12 µM
SMILES: COc1ccnc(C[S+]([O-])c2nc3cc(-n4c(C)ccc4C)c(F)cc3[nH]2)c1C (stereo not drawn) [Compound 16, 2-[[(4-methoxy-3-methyl)-2-pyridinyl]methylsulfinyl]-5-(1H-2,5-dimethylpyrrol-1-yl)-6-fluoro-1H-benzimidazole]
Gastric juice volume (gastric juice secretion; 3 mg/kg, rat): 1.92 ± 0.14 ml/100 g BW
Inhibition rate, gastric juice secretion (gastric juice secretion; 3 mg/kg, rat): 44.35%
Gastric juice volume (gastric juice secretion; 10 mg/kg, rat): 1.35 ± 0.15 ml/100 g BW
Inhibition rate, gastric juice secretion (gastric juice secretion; 10 mg/kg, rat): 60.87%
Gastric juice volume (gastric juice secretion; 30 mg/kg, rat): 0.98 ± 0.19 ml/100 g BW
Inhibition rate, gastric juice secretion (gastric juice secretion; 30 mg/kg, rat): 71.59%
ED50 (gastric juice secretion): 4.53 mg/kg
Inhibition of gastric juice secretion (in words) (gastric juice secretion; rat): very strong inhibition of gastric juice secretion
Volume (inhibition of acidity) (acidity; 3 mg/kg, rat): 25.65 ± 6.86 μEq/hr
Inhibition rate, acidity (acidity; 3 mg/kg, rat): 64.68%
Volume (inhibition of acidity) (acidity; 10 mg/kg, rat): 10.08 ± 3.71 μEq/hr
Inhibition rate, acidity (acidity; 10 mg/kg, rat): 86.12%
Volume (inhibition of acidity) (acidity; 30 mg/kg, rat): 1.75 ± 1.06 μEq/hr
Inhibition rate, acidity (acidity; 30 mg/kg, rat): 97.59%
ED50 (acidity): 1.85 mg/kg
Acidity lowering effect (in words) (acidity; rat): high acidity lowering effect

IC50 (H^+ /K^+ -ATPase): 22 µM
SMILES: COc1cc(C[S+]([O-])c2nc3cc(-n4c(C)ccc4C)c(F)cc3[nH]2)ncc1C (stereo not drawn) [Compound 17]

IC50 (H^+ /K^+ -ATPase): 210 µM
SMILES: COc1ccnc(C[S+]([O-])c2nc3cc(-n4c(C)ccc4C)c(F)cc3[nH]2)c1 (stereo not drawn) [Compound 20]
Gastric juice volume (gastric juice secretion; 10 mg/kg, rat): 1.41 ± 0.16 ml/100 g BW
Inhibition rate, gastric juice secretion (gastric juice secretion; 10 mg/kg, rat): 53.62%
Gastric juice volume (gastric juice secretion; 30 mg/kg, rat): 1.06 ± 0.10 ml/100 g BW
Inhibition rate, gastric juice secretion (gastric juice secretion; 30 mg/kg, rat): 65.13%
Volume (inhibition of acidity) (acidity; 10 mg/kg, rat): 18.41 ± 2.27 μEq/hr
Inhibition rate, acidity (acidity; 10 mg/kg, rat): 74.23%
Volume (inhibition of acidity) (acidity; 30 mg/kg, rat): 11.31 ± 1.91 μEq/hr
Inhibition rate, acidity (acidity; 30 mg/kg, rat): 84.17%

IC50 (H^+ /K^+ -ATPase): 320 µM
SMILES: Cc1c(OCC(F)(F)F)ccnc1C[S+]([O-])c1nc2cc(-n3c(C)ccc3C)c(F)cc2[nH]1 (stereo not drawn) [Compound 23]

IC50 (H^+ /K^+ -ATPase): 5.9 µM
SMILES: COc1ccnc(C[S+]([O-])c2nc3cc(-n4c(C)ccc4C)c(F)cc3[nH]2)c1C (stereo not drawn) [Compound 25]
